Results: patent US20090163476A1, “N-Phenyl Benzamide Derivatives as Sirtuin Modulators” (Sirtris Pharmaceuticals, Inc., priority 2005, published 2009)

Assays:
[1] = biological target: T1, human SIRT3 (Homo sapiens, UniProt Q9NTG7); assay: Fluorescence polarization assay of SIRT3 activity (Histone H4-based peptide substrate); assay type: biochemical; details: inhibition of SIRT3 (Table 7)
T1 construct: The SIRT3 protein used in the assays corresponded to amino acid residues 102-399 of human SIRT3; His-tag (N); made in house; host or cells: E. coli
T1 sequence (Q9NTG7 102-399): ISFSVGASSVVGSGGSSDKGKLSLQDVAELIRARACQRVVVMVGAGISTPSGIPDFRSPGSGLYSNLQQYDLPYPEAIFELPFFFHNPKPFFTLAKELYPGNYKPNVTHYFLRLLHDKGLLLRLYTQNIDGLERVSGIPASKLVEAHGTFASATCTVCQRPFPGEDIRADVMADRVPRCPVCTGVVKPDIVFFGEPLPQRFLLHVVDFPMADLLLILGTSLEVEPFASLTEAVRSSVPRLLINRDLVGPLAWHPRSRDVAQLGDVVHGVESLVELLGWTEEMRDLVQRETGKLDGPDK
Excerpt: A fluorescence polarization assay was used to identify modulators of SIRT3 activity. The same assay may be used to identify modulators of any sirtuin protein. The assay utilizes a peptide substrate based on a fragment of Histone H4, a known sirtuin deacetylation target. The substrate contains a peptide having 14 amino acid residues as follows: Biotin-GASSHSK(Ac)VLK(MR121) (SEQ ID NO: 3) wherein K(Ac) is an acetylated lysine residue. The peptide is labeled with the fluorophore MR121 (excitation 635 nm/emission 680 nm) at the C-terminus and biotin at the N-terminus.
The peptide substrate is exposed to a sirtuin protein in the presence of NAD^+ to allow deacetylation of the substrate and render it sensitive to cleavage by trypsin. Trypsin is then added and the reaction is carried to completion (i.e., the deacetylated substrate is cleaved) releasing the MR121 fragment. Streptavidin is then added to the reaction where it can bind both the uncleaved substrate (i.e., any remaining acetylated substrate) and the non-fluorescent portion of the cleaved peptide substrate (i.e., the biotin containing fragment). The fluorescence polarization signal observed for the full length peptide substrate bound to streptavidin is higher than the fluorescence polarization signal observed for the released MR121C-terminal fragment. Therefore, the fluorescence polarization obtained is inversely proportional to the level of deacetylation (e.g., the signal is inversely proportional to the activity of the sirtuin protein). Results are read on a microplate fluorescence polarization reader (Molecular Devices Spectramax MD) with appropriate excitation and emission filters.
The fluorescence polarization assays may be conducted as follows: 0.5 μM peptide substrate and 50 μM βNAD^+ is incubated with 2 nM of SIRT3 for 60 minutes at 37° C. in a reaction buffer (25 mM Tris-acetate pH8, 137 mM Na—Ac, 2.7 mM K—Ac, 1 mM Mg—Ac, 0.1% Pluronic F127, 10 mM CaCl2, 1 mM TCEP, 0.025% BSA). Test compounds are solubilized in DMSO and are added to the reaction at 11 concentrations ranging from 0.7 μM to 100 μM. The SIRT3 protein used in the assays corresponded to amino acid residues 102-399 of human SIRT3 with an N-terminal His-tag. […] Fluorescent polarization is determined at excitation (650 nm) and emissions (680 nm) wavelengths. The level of activity of the sirtuin protein in the presence of the various concentrations of test compound are then determined and may be compared to the level of activity of the sirtuin protein in the absence of the test compound, and/or the level of activity of the sirtuin proteins in the negative control (e.g., level of inhibition) and positive control (e.g., level of activation) described below. […]

[2] = biological target: T2, SIRT1 (Homo sapiens, UniProt Q96EB6); assay: SIRT1 fluorescence polarization or mass spectrometry based assay (format not given); assay type: biochemical; details: inhibition of SIRT1 (Table 5)
T2 sequence (Q96EB6 1-747): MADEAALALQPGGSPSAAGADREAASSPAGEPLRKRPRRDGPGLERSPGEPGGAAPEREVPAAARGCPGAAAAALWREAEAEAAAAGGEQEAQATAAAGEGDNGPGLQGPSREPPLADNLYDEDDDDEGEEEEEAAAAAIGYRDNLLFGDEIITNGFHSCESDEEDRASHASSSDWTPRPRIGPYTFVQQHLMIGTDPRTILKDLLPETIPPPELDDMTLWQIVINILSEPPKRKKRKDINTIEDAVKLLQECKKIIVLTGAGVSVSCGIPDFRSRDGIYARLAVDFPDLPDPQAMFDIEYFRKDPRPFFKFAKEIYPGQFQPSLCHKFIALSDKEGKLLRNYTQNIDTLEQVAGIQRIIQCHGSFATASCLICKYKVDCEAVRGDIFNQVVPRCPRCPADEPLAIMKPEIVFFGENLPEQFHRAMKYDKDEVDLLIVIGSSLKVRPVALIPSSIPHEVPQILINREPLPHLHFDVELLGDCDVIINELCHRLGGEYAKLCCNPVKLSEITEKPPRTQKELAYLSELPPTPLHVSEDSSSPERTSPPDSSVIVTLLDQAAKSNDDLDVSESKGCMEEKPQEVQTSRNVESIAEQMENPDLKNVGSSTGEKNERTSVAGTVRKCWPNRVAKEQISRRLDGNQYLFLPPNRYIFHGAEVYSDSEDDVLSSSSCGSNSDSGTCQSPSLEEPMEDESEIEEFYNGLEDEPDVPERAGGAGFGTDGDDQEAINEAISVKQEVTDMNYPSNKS

Row | IC50 [1] | IC50 [2] | SMILES
1 | 51 to 100 µM | 101 to 150 µM | COc1ccccc1C(=O)Nc1cccc(/C=C/C(=O)N2CCCNCC2)c1 [Compound 15]
2 | 101 to 150 µM |  | N#Cc1cccc(C(=O)Nc2ccc(-c3cc(C(N)=O)co3)cc2)c1 [Compound 16]
3 | 51 to 100 µM |  | O=C(Nc1cccc(/C=C/C(=O)N2CCCNCC2)c1)c1ccc(F)c(C(F)(F)F)c1 [Compound 17]
4 | 51 to 100 µM |  | COc1ccc(C(=O)Nc2cccc(/C=C/C(=O)N3CCCNCC3)c2)cc1OC [Compound 18]
